Drawing on patent publication US9938273B2 (Plexxikon Inc., priority 2015, dated 2018), this text covers IC50 for 13 molecules.

The test has as its target T1, FLT3-ITD (Homo sapiens, UniProt P36888).
T1 sequence (P36888 1-993): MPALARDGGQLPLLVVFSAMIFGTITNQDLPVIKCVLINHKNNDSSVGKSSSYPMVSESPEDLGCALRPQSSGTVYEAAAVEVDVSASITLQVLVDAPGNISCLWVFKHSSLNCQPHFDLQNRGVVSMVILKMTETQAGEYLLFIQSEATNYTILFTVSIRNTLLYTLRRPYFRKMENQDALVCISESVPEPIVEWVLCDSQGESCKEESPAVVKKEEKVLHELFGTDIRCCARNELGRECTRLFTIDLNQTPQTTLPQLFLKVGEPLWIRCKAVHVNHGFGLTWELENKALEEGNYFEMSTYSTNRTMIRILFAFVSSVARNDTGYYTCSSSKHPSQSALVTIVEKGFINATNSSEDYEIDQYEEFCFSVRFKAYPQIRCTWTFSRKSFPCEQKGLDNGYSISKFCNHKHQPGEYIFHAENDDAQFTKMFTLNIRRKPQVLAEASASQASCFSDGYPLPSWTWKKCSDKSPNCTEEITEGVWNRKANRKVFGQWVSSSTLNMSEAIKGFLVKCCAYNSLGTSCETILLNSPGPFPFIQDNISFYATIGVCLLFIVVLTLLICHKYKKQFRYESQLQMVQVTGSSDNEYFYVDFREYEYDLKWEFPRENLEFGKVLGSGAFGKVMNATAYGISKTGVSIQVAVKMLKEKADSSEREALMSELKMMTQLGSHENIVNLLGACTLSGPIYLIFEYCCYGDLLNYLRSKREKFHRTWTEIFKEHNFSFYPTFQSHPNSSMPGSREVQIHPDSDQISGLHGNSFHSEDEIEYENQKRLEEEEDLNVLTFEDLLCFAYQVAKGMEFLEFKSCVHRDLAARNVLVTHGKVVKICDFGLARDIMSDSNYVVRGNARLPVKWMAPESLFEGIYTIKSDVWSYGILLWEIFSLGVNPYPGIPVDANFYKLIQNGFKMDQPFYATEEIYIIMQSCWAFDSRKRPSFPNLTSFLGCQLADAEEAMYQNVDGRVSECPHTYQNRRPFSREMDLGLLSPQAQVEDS
As to the kind of experiment: AlphaScreen kinase assay with recombinant enzyme, FLT3-ITD. Conditions: 8pt; read-out: FLT3_ITD 8pt: IC50. Format: biochemical. The procedure, abridged:
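Read-out: AlphaScreen proximity signal at 580 nm (680 nm excitation), lost as peptide tyrosine phosphorylation falls. Substrate Biotin-GG(EEEEY)10EE at 30 nM; IC50 runs at 10 μM (FLT3 mutants) or 100 μM (c-KIT) final. Donor beads 20 min, then acceptor beads 60 min, room temperature.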
Consider `CN1CC(NC(=O)c2cccc(-c3cnc4[nH]c(-c5ccccc5)cc4c3)n2)C1` [Compound P-0075, N-(1-methylazetidin-3-yl)-6-(2-phenyl-1H-pyrrolo[2,3-b]pyridin-5-yl)pyridine-2-carboxamide], for which the IC50 was 0.0001 to 10 µM.

On to `NC1(C(F)(F)F)CCN(C(=O)c2cccc(-c3cnc4[nH]c(-c5ccccc5)cc4c3)n2)C1` (stereo not shown) [Compound P-0077, [3-amino-3-(trifluoromethyl)pyrrolidin-1-yl]-[6-(2-phenyl-1H-pyrrolo[2,3-b]pyridin-5-yl)-2-pyridyl]methanone], for which the concentration for half-maximal inhibition (IC50) lay in the range of 0.0001 to 10 µM.

`CC1(N)CCN(C(=O)c2cccc(-c3cnc4[nH]c(-c5ccccc5)cc4c3)n2)C1` (stereo not shown) [Compound P-0078, (3-amino-3-methyl-pyrrolidin-1-yl)-[6-(2-phenyl-1H-pyrrolo[2,3-b]pyridin-5-yl)-2-pyridyl]methanone]: the IC50 was 0.0001 to 10 µM.

Take `CNCC1CCN(C(=O)c2cccc(-c3cnc4[nH]c(-c5ccccc5)cc4c3)n2)C1` (stereo not shown) [Compound P-0079, [3-(methylaminomethyl)pyrrolidin-1-yl]-[6-(2-phenyl-1H-pyrrolo[2,3-b]pyridin-5-yl)-2-pyridyl]methanone]: the IC50 was in the range of 0.0001 to 10 µM.

Turning to `CC(C)(C#N)NC(=O)c1cccc(-c2cnc3[nH]c(-c4cscn4)cc3c2)n1` [Compound P-0167, N-(1-cyano-1-methyl-ethyl)-6-(2-thiazol-4-yl-1H-pyrrolo[2,3-b]pyridin-5-yl)pyridine-2-carboxamide], the 50% inhibitory concentration (IC50) fell in the range of 0.0001 to 10 µM.

Regarding `CC(C)(C#N)NC(=O)c1cccc(-c2cnc3[nH]c(-c4cnn(C(=O)C5CC5)c4)cc3c2)n1` [Compound P-0184, N-(1-cyano-1-methyl-ethyl)-6-[2-[1-(cyclopropanecarbonyl)pyrazol-4-yl]-1H-pyrrolo[2,3-b]pyridin-5-yl]pyridine-2-carboxamide], the IC50 is 0.0001 to 10 µM.

Regarding `CC(C)(C#N)NC(=O)c1cccc(-c2cnc3[nH]c(-c4cnn(C(F)F)c4)c(Cl)c3c2)n1` [Compound P-0185, 6-[3-chloro-2-[1-(difluoromethyl)pyrazol-4-yl]-1H-pyrrolo[2,3-b]pyridin-5-yl]-N-(1-cyano-1-methyl-ethyl)pyridine-2-carboxamide], the IC50 is 0.0001 to 10 µM.

Take `CC(C)(C#N)NC(=O)c1cccc(-c2cnc3[nH]c(C4=CCS(=O)(=O)CC4)cc3c2)n1` [Compound P-0186, N-(1-cyano-1-methyl-ethyl)-6-[2-(1,1-dioxo-3,6-dihydro-2H-thiopyran-4-yl)-1H-pyrrolo[2,3-b]pyridin-5-yl]pyridine-2-carboxamide]: the IC50 lay in the range of 0.0001 to 10 µM.

As to `CC(C)Oc1ccc(-c2cc3cc(-c4cccc(C(=O)NC(C)(C)C#N)n4)cnc3[nH]2)cn1` [Compound P-0190, N-(1-cyano-1-methyl-ethyl)-6-[2-(6-isopropoxy-3-pyridyl)-1H-pyrrolo[2,3-b]pyridin-5-yl]pyridine-2-carboxamide], the IC50 was in the range of 0.0001 to 10 µM.

For the molecule `CC(C)Oc1ncc(-c2cc3cc(-c4cccc(C(=O)NC(C)(C)C#N)n4)cnc3[nH]2)cn1` [Compound P-0191, N-(1-cyano-1-methyl-ethyl)-6-[2-(2-isopropoxypyrimidin-5-yl)-1H-pyrrolo[2,3-b]pyridin-5-yl]pyridine-2-carboxamide], the IC50 lay in the range of 0.0001 to 10 µM.

`Cc1nn(C(C)C)cc1-c1[nH]c2ncc(-c3cccc(C(=O)NC(C)(C)C#N)n3)cc2c1Cl` [Compound P-0192]: the IC50 lay within 0.0001 to 10 µM.

Turning to `CC(C)(C#N)NC(=O)c1cccc(-c2cnc3[nH]c(-c4cnn(CC(F)(F)F)c4)cc3c2)n1` [Compound P-0193, N-(1-cyano-1-methyl-ethyl)-6-[2-[1-(2,2,2-trifluoroethyl)pyrazol-4-yl]-1H-pyrrolo[2,3-b]pyridin-5-yl]pyridine-2-carboxamide], the IC50 was 0.0001 to 10 µM.

For the molecule `CC(C)(C#N)NC(=O)c1cccc(-c2cnc3[nH]c(-c4ccc(C5(C#N)CC5)cc4)cc3c2)n1` [Compound P-0194, 6-[2-[4-(1-cyanocyclopropyl)phenyl]-1H-pyrrolo[2,3-b]pyridin-5-yl]-N-(1-cyano-1-methyl-ethyl)pyridine-2-carboxamide], the IC50 lay in the range of 0.0001 to 10 µM.
